According to patent US20240368118A1, “CEREBLON BINDING COMPOUNDS, COMPOSITIONS THEREOF, AND METHODS OF TREATMENT THEREWITH” (CELGENE CORPORATION, priority 2021, published 2024):
Structures can show the parent of a compound that is named as a salt.

Target: T1, AR (Homo sapiens, UniProt P10275)
T1 construct: endogenous in cells; host or cells: VCaP cells
T1 sequence (P10275 1-920): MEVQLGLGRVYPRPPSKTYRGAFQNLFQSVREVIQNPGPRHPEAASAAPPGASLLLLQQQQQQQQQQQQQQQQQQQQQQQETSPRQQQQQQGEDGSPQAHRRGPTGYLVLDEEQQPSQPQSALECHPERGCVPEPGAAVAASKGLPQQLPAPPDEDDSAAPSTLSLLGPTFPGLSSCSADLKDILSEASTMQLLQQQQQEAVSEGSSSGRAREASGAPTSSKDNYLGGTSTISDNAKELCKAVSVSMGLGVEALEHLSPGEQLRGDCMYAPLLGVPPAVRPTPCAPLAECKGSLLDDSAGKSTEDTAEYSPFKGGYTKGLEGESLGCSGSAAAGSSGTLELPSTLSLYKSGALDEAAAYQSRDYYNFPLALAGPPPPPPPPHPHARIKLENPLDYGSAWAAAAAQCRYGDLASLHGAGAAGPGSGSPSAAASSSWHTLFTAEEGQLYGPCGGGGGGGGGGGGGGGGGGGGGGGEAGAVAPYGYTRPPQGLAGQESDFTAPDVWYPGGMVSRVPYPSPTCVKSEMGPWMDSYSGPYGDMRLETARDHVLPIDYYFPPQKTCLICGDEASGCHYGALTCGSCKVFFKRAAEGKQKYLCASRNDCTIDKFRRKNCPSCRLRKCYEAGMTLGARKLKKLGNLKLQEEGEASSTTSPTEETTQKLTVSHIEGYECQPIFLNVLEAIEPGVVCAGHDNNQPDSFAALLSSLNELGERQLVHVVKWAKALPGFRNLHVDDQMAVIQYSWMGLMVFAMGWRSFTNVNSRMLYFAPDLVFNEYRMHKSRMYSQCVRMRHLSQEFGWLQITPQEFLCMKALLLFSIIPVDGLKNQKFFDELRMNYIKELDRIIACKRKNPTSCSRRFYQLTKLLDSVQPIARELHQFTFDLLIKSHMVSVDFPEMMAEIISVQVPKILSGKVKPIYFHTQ
Assay: VCAP AR Degradation Assay
Type: cell-based
Details: VCaP cells, 24 h; for DC50: AR ELISA, concentration when AR level = 50% of DMSO control; for Ymin: lowest AR level normalized to DMSO control
Experimental: VCAP AR Degradation Assay. Test compounds were pre-dispensed into a Corning CellBind 96-well clear bottom plate (Cat #3300) using an acoustic dispenser to make a 10-point concentration series at 1:3 dilution for each compound. The final top concentration of each compound was 5 μM. DMSO at a final concentration of 0.1% was used as a control. VCaP cells cultured in DMEM with 8% fetal bovine serum (FBS) were seeded at 50K cells per well in a 200 μL volume into the compound plate and incubated at 37° C. in a C02 incubator for 24 h. The medium was carefully removed from the cells and the plate was placed on ice. One hundred μL of ice-cold 1× cell lysis buffer from Cell Signaling Technologies (Cat #9803) was added to each well of the cells and the plate was incubated at 4° C. on a shaker for 1 h. Fifteen μL of cell lysate was used for AR ELISA detection using a PathScan Total Sandwich AR ELISA kit (Cell Signaling Technology, Cat #12580). AR levels in compound-treated wells were normalized to that of DMSO control and expressed as percent of control (PoC) (y). A Four Parameter Logistic Model (Sigmoidal Dose-Response Model) was used to determine the compound's DC50, and EC50, using the following equation: […]
The lowest measured AR level normalized to DMSO control in response to compound treatment, termed Y value, was used to characterize the compound-mediated AR degradation efficiency.

SMILES | DC50 | Ymin (class symbols) | Ymin (given as numbers)
C[C@@H]1CN(CCO[C@H]2CC[C@H](N3C(=S)N(c4ccc(C#N)c(C(F)(F)F)c4)C(=O)C3(C)C)CC2)C[C@H](C)N1CC(=O)Nc1ccc(C2CCC(=O)NC2=O)cc1 (stereo partly drawn) [Cmpd 2, 2-((2S,6R)-4-(2-((trans-4-(3-(4-Cyano-3-(trifluoromethyl)phenyl)-5,5-dimethyl-4-oxo-2-thioxoimidazolidin-1-yl)cyclohexyl)oxy)ethyl)-2,6-dimethylpiperazin-1-yl)-N-(4-(2,6-dioxopiperidin-3-yl)phenyl)acetamide hydrochloride] | 5 to 15 nM | *** (30%<Y<80%) | –
CC[C@@]1(c2ccc(NC(=O)CN3[C@H](C)CN(CCO[C@H]4CC[C@H](N5C(=S)N(c6ccc(C#N)c(C(F)(F)F)c6)C(=O)C5(C)C)CC4)C[C@@H]3C)cc2)CCC(=O)NC1=O [Cmpd 8, 2-((2S,6R)-4-(2-((trans-4-(3-(4-Cyano-3-(trifluoromethyl)phenyl)-5,5-dimethyl-4-oxo-2-thioxoimidazolidin-1-yl)cyclohexyl)oxy)ethyl)-2,6-dimethylpiperazin-1-yl)-N-(4-((S)-3-ethyl-2,6-dioxopiperidin-3-yl)phenyl)acetamide hydrochloride] | 100 to 10000 nM | *** (30%<Y<80%) | –
C[C@@H]1CN(CCCC[C@H]2CC[C@H](N3C(=S)N(c4ccc(C#N)c(C(F)(F)F)c4)C(=O)C3(C)C)CC2)C[C@H](C)N1CC(=O)Nc1cccc(C2CCC(=O)NC2=O)c1 (stereo partly drawn) [Cmpd 24, 2-((2R,6S)-4-(4-((trans)-4-(3-(4-Cyano-3-(trifluoromethyl)phenyl)-5,5-dimethyl-4-oxo-2-thioxoimidazolidin-1-yl)cyclohexyl)butyl)-2,6-dimethylpiperazin-1-yl)-N-(3-(2,6-dioxopiperidin-3-yl)phenyl)acetamide] | ≤ 5 nM | – | 15 % of DMSO control
C[C@@H]1CN(CCCO[C@H]2CC[C@H](N3C(=S)N(c4ccc(C#N)c(C(F)(F)F)c4)C(=O)C3(C)C)CC2)C[C@H](C)N1CC(=O)Nc1ccc(C2CCC(=O)NC2=O)cc1 (stereo partly drawn) [Cmpd 12, 2-((2R,6S)-4-(3-((trans-4-(3-(4-Cyano-3-(trifluoromethyl)phenyl)-5,5-dimethyl-4-oxo-2-thioxoimidazolidin-1-yl)cyclohexyl)oxy)propyl)-2,6-dimethylpiperazin-1-yl)-N-(4-(2,6-dioxopiperidin-3-yl)phenyl)acetamide hydrochloride] | ≤ 5 nM | ** (20%<Y≤30%) | –
C[C@@H]1CN(CCC[C@H]2CC[C@H](N3C(=S)N(c4cnc(C#N)c(Cl)c4)C(=O)C3(C)C)CC2)C[C@H](C)N1CC(=O)Nc1ccc(C2CCC(=O)NC2=O)cc1 (stereo partly drawn) [Cmpd 16, 2-((2R,6S)-4-(3-(trans-4-(3-(5-Chloro-6-cyanopyridin-3-yl)-5,5-dimethyl-4-oxo-2-thioxoimidazolidin-1-yl)cyclohexyl)propyl)-2,6-dimethylpiperazin-1-yl)-N-(4-(2,6-dioxopiperidin-3-yl)phenyl)acetamide hydrochloride] | 5 to 15 nM | *** (30%<Y<80%) | –
C[C@@H]1C[C@@H](CCO[C@H]2CC[C@H](N3C(=S)N(c4ccc(C#N)c(C(F)(F)F)c4)C(=O)C3(C)C)CC2)C[C@H](C)N1CC(=O)Nc1ccc(C2CCC(=O)NC2=O)cc1 (stereo partly drawn) [Cmpd 21, 2-((2R,4s,6S)-4-(2-((trans-4-(3-(4-Cyano-3-(trifluoromethyl)phenyl)-5,5-dimethyl-4-oxo-2-thioxoimidazolidin-1-yl)cyclohexyl)oxy)ethyl)-2,6-dimethylpiperidin-1-yl)-N-(4-(2,6-dioxopiperidin-3-yl)phenyl)acetamide hydrochloride] | ≤ 5 nM | * (0<Y≤20%) | –
CC1(C)C(=O)N(c2ccc(C#N)c(C(F)(F)F)c2)C(=S)N1[C@H]1CC[C@H](OCCN2CCN(CC(=O)Nc3ccc(C4CCC(=O)NC4=O)cc3)[C@@H](C(F)(F)F)C2)CC1 (stereo partly drawn) [Cmpd 23, 2-((R)-4-(2-((trans-4-(3-(4-Cyano-3-(trifluoromethyl)phenyl)-5,5-dimethyl-4-oxo-2-thioxoimidazolidin-1-yl)cyclohexyl)oxy)ethyl)-2-(trifluoromethyl)piperazin-1-yl)-N-(4-(2,6-dioxopiperidin-3-yl)phenyl)acetamide hydrochloride] | 5 to 15 nM | * (0<Y≤20%) | –
C[C@@H]1CN(CCCO[C@H]2CC[C@H](N3C(=S)N(c4cnc(C#N)c(C(F)(F)F)c4)C(=O)C3(C)C)CC2)C[C@H](C)N1CC(=O)Nc1ccc(C2CCC(=O)NC2=O)cc1 (stereo partly drawn) [Cmpd 13, 2-((2R,6S)-4-(3-((trans-4-(3-(6-Cyano-5-(trifluoromethyl)pyridin-3-yl)-5,5-dimethyl-4-oxo-2-thioxoimidazolidin-1-yl)cyclohexyl)oxy)propyl)-2,6-dimethylpiperazin-1-yl)-N-(4-(2,6-dioxopiperidin-3-yl)phenyl)acetamide hydrochloride] | ≤ 5 nM | ** (20%<Y≤30%) | –
C[C@@H]1C[C@H](OCCO[C@H]2CC[C@H](N3C(=S)N(c4cnc(C#N)c(C(F)(F)F)c4)C(=O)C3(C)C)CC2)C[C@H](C)N1CC(=O)Nc1ccc(C2CCC(=O)NC2=O)cc1 (stereo partly drawn) [Cmpd 41, 2-((2R,4r,6S)-4-(2-(((trans)-4-(3-(6-Cyano-5-(trifluoromethyl)pyridin-3-yl)-5,5-dimethyl-4-oxo-2-thioxoimidazolidin-1-yl)cyclohexyl)oxy)ethoxy)-2,6-dimethylpiperidin-1-yl)-N-(4-(2,6-dioxopiperidin-3-yl)phenyl)acetamide] | ≤ 5 nM | – | 17 % of DMSO control
CC1(C)C(=O)N(c2ccc(C#N)c(C(F)(F)F)c2)C(=S)N1[C@H]1CC[C@H](OCCC2CCN(CC(=O)Nc3ccc(C4CCC(=O)NC4=O)cc3)CC2(F)F)CC1 (stereo partly drawn) [Cmpd 43, 2-(4-(2-(((trans)-4-(3-(4-Cyano-3-(trifluoromethyl)phenyl)-5,5-dimethyl-4-oxo-2-thioxoimidazolidin-1-yl)cyclohexyl)oxy)ethyl)-3,3-difluoropiperidin-1-yl)-N-(4-(2,6-dioxopiperidin-3-yl)phenyl)acetamide] | ≤ 5 nM | – | 18 % of DMSO control
C[C@@H]1CN(CCCO[C@H]2CC[C@H](N3C(=S)N(c4ccc(C#N)c(C(F)(F)F)c4)C(=O)C3(C)C)CC2)C[C@H](C)N1CC(=O)Nc1cccc(N2CCC(=O)NC2=O)c1 [Cmpd 19, 2-((2R,6S)-4-(3-((trans-4-(3-(4-Cyano-3-(trifluoromethyl)phenyl)-5,5-dimethyl-4-oxo-2-thioxoimidazolidin-1-yl)cyclohexyl)oxy)propyl)-2,6-dimethylpiperazin-1-yl)-N-(3-(2,4-dioxotetrahydropyrimidin-1(2H)-yl)phenyl)acetamide hydrochloride] | ≤ 5 nM | ** (20%<Y≤30%) | –
C[C@@H]1CN(CCCC[C@H]2CC[C@H](N3C(=S)N(c4ccc(C#N)c(C(F)(F)F)c4)C(=O)C3(C)C)CC2)C[C@H](C)N1CC(=O)Nc1ccc(C2CCC(=O)NC2=O)cc1 (stereo partly drawn) [Cmpd 30, 2-((2R,6S)-4-(4-((trans)-4-(3-(4-Cyano-3-(trifluoromethyl)phenyl)-5,5-dimethyl-4-oxo-2-thioxoimidazolidin-1-yl)cyclohexyl)butyl)-2,6-dimethylpiperazin-1-yl)-N-(4-(2,6-dioxopiperidin-3-yl)phenyl)acetamide] | ≤ 5 nM | – | 20 % of DMSO control
C[C@@H]1CN(CCO[C@H]2CC[C@H](N3C(=S)N(c4ccc(C#N)c(C(F)(F)F)c4)C(=O)C3(C)C)CC2)C[C@H](C)N1CC(=O)Nc1ccc(C2(C)CCC(=O)NC2=O)cc1 (single isomer, unassigned) [Cmpd 9, hydrochloride] | 100 to 10000 nM | *** (30%<Y<80%) | –
